Test results as given in BindingDB's records for doi:10.7270/Q2251GJ9 (The Scripps Research Institute Molecular Screening Center, 2007).
Structures can show the parent of a compound that is named as a salt.

These compounds were tested against Sphingosine 1-phosphate receptor 1 (Homo sapiens, UniProt P21453) (assay: S1P1 receptor agonists, dose response, cell-based, agonist mode, 60K MLSMR set (AID 468)). Details: not given.
Sphingosine 1-phosphate receptor 1, sequence (P21453 whole entry): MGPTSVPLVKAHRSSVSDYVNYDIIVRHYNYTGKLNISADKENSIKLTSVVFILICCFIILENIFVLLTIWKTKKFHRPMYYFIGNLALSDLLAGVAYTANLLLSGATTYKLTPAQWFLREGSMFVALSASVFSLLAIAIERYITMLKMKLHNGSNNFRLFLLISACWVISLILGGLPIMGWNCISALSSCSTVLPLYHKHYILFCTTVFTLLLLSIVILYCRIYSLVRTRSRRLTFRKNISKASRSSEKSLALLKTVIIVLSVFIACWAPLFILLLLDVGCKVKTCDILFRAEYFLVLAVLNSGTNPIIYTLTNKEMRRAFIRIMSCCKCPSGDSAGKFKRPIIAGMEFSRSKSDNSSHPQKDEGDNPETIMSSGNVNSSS

Row | SMILES | EC50 [µM]
1 | Cc1nnc2ccc(Oc3ccc(-c4ccccc4)cc3)nn12 [3-methyl-6-(4-phenylphenoxy)-[1,2,4]triazolo[4,3-b]pyridazine] | 5.08
2 | Cn1c(=O)oc2cc(S(=O)(=O)N3CCCC(C(=O)N4CC=C(c5ccccc5)CC4)C3)ccc21 (stereo not given) [3-methyl-6-[3-(4-phenyl-3,6-dihydro-2H-pyridine-1-carbonyl)piperidin-1-yl]sulfonyl-1,3-benzoxazol-2-one] | 9.63
3 | Oc1ccc(-c2nnc(-c3ccc(O)cc3)nn2)cc1 [4,4'-(1,2,4,5-tetrazine-3,6-diyl)diphenol] | > 10
4 | Nc1ccc(N2CCCCCC2)cc1 [4-(1-azepanyl)aniline;hydrochloride] | > 10
5 | NC(=O)c1ccc(OCC(F)(F)C(F)(F)C(F)(F)C(F)(F)C(F)(F)C(F)F)cc1 [4-(2,2,3,3,4,4,5,5,6,6,7,7-dodecafluoroheptoxy)benzamide] | 8
6 | O=C(NCc1ccccc1)N1CCN(c2ccc(Cl)c(Cl)c2)CC1 [4-(3,4-dichlorophenyl)-N-(phenylmethyl)-1-piperazinecarboxamide] | 7.15
7 | CC(=O)c1ccc(NC(=O)N2CCN(c3cccc(Cl)c3)CC2)cc1 [4-(3-chlorophenyl)-N-(4-ethanoylphenyl)piperazine-1-carboxamide] | 9.76
8 | c1ccc(N2CCN(c3ncnc4c3oc3ccccc34)CC2)cc1 [4-(4-phenyl-1-piperazinyl)benzofuro[3,2-d]pyrimidine] | > 95
9 | CCOc1cc(C2NCc3ccccc3-n3cccc32)ccc1O (stereo not given) [4-(5,6-dihydro-4H-pyrrolo[1,2-a][1,4]benzodiazepin-4-yl)-2-ethoxy-phenol;hydrochloride] | 16.1
10 | Oc1ccc(-c2nnc(SCC3CCCCC3)o2)cc1 [4-(5-Cyclohexylmethylsulfanyl-[1,3,4]oxadiazol-2-yl)-phenol] | 0.552
11 | CC(C)c1ccc2oc(-c3ccc(N)cc3)nc2c1 [4-(5-propan-2-yl-1,3-benzoxazol-2-yl)aniline] | 2.64
12 | Cc1nc2sccn2c1-c1csc(NCc2ccccc2)n1 [4-(6-methyl-5-imidazo[2,1-b]thiazolyl)-N-(phenylmethyl)-2-thiazolamine] | 2.77
13 | O=C(Nc1nccs1)c1ccc(S(=O)(=O)NCC2CCCCC2)cc1 [4-(Cyclohexylmethyl-sulfamoyl)-N-thiazol-2-yl-benzamide] | 8.02
14 | Cc1ccc2[nH]c3c(N4CCCCCC4)ncnc3c2c1 [4-(azepan-1-yl)-8-methyl-5H-pyrimido[5,4-b]indole] | 4.15
15 | CCOC(=O)c1cnc(-n2nc(C)cc2C)nc1NC1CCCCC1 [4-(cyclohexylamino)-2-(3,5-dimethyl-1-pyrazolyl)-5-pyrimidinecarboxylic acid ethyl ester] | 6.37
16 | CN(C)S(=O)(=O)c1ccc(C(=O)Nc2nc(-c3cccs3)cs2)cc1 [4-(dimethylsulfamoyl)-N-(4-thiophen-2-yl-1,3-thiazol-2-yl)benzamide] | > 10
17 | CCN(C1CCCCC1)S(=O)(=O)c1ccc(S(=O)(=O)NCc2ccncc2)cc1 [4-N-cyclohexyl-4-N-ethyl-1-N-(pyridin-4-ylmethyl)benzene-1,4-disulfonamide] | 5.55
18 | CCOC(=O)N1CCN(C(=O)C2CCN(c3ncnc4c3sc3cccc(F)c34)CC2)CC1 [4-[1-(9-fluorobenzothiopheno[3,2-d]pyrimidin-4-yl)isonipecotoyl]piperazine-1-carboxylic acid ethyl ester] | 5.92
19 | CCCOC(=O)c1ccc(OCC(O)Cn2c(C)nc3ccccc32)cc1 (stereo not given) [4-[2-hydroxy-3-(2-methyl-1-benzimidazolyl)propoxy]benzoic acid propyl ester] | 8.15
20 | COC(=O)c1ccc(OCC(O)Cn2nnc3ccccc32)cc1 (stereo not given) [4-[3-(1-benzotriazolyl)-2-hydroxypropoxy]benzoic acid methyl ester] | > 95

Row | SMILES | EC50 [µM]
21 | Cc1ccccc1-c1noc(-c2ccc(O)cc2)n1 [4-[3-(2-methylphenyl)-2H-1,2,4-oxadiazol-5-ylidene]-1-cyclohexa-2,5-dienone] | 8.46
22 | O=C(c1cc(-c2ccc(O)cc2)on1)N1CCc2ccccc2C1 [4-[3-(3,4-dihydro-1H-isoquinolin-2-ylcarbonyl)-2H-1,2-oxazol-5-ylidene]cyclohexa-2,5-dien-1-one] | 5.24
23 | O=C(Nc1cccc(C(F)(F)F)c1)N1CCC(c2nc(-c3ccc(F)cc3)no2)CC1 [4-[3-(4-Fluoro-phenyl)-[1,2,4]oxadiazol-5-yl]-piperidine-1-carboxylic acid (3-trifluoromethyl-phenyl)-amide] | 7.37
24 | O=C(Nc1ccc(Cl)cc1)N1CCC(c2nc(-c3ccc(F)cc3)no2)CC1 [4-[3-(4-Fluoro-phenyl)-[1,2,4]oxadiazol-5-yl]-piperidine-1-carboxylic acid (4-chloro-phenyl)-amide] | 5.07
25 | Fc1ccc2[nH]c3c(N4CCN(Cc5ccc6c(c5)OCO6)CC4)ncnc3c2c1 [4-[4-(1,3-benzodioxol-5-ylmethyl)-1-piperazinyl]-8-fluoro-5H-pyrimido[5,4-b]indole] | 1.96
26 | COc1cccc(N2CCN(c3ncnc4c3[nH]c3ccccc34)CC2C)c1 (stereo not given) [4-[4-(3-methoxyphenyl)-3-methyl-1-piperazinyl]-5H-pyrimido[5,4-b]indole] | 3.73
27 | Oc1ccc(N2CCN(c3ncnc4sc5c(c34)CCC5)CC2)cc1 [4-[4-(7,8-dihydro-6H-cyclopenta[4,5]thieno[1,2-c]pyrimidin-1-yl)-1-piperazinyl]phenol] | 9.07
28 | Clc1ccc(OCCN2CCN(c3ncnc4sccc34)CC2)cc1 [4-[4-[2-(4-chloranylphenoxy)ethyl]piperazin-1-yl]thieno[2,3-d]pyrimidine] | 0.106
29 | CCOc1ccc(Cc2nc(-c3nonc3N)no2)cc1OCC [4-[5-(3,4-diethoxybenzyl)-1,2,4-oxadiazol-3-yl]-1,2,5-oxadiazol-3-amine] | 9.19
30 | CCOc1ccc(-c2nc(-c3ccncc3)no2)cc1OCC [4-[5-(3,4-diethoxyphenyl)-1,2,4-oxadiazol-3-yl]pyridine] | 0.207
31 | Cc1ccc(C(C)C)c(OCc2nc(-c3nonc3N)no2)c1 [4-[5-[(5-methyl-2-propan-2-yl-phenoxy)methyl]-1,2,4-oxadiazol-3-yl]-1,2,5-oxadiazol-3-amine] | 1.61
32 | c1ccc(N2CCN(Cc3ccnc4ccccc34)CC2)cc1 [4-[(4-phenyl-1-piperazinyl)methyl]quinoline] | 9.24
33 | CCN(CC)c1ccc2cc(NC(=O)CCC(=O)O)c(=O)oc2c1 [4-[[7-(diethylamino)-2-keto-chromen-3-yl]amino]-4-keto-butyric acid] | 9.78
34 | CN(CC1CCCO1)S(=O)(=O)c1ccc(C(=O)Nc2nc(-c3ccccn3)cs2)cc1 (stereo not given) [4-[methyl(2-oxolanylmethyl)sulfamoyl]-N-[4-(2-pyridinyl)-2-thiazolyl]benzamide] | > 10
35 | CC(=O)c1c(C)[nH]c(C(=O)OCCCCN2C(=O)c3ccccc3C2=O)c1C [4-acetyl-3,5-dimethyl-1H-pyrrole-2-carboxylic acid 4-(1,3-dioxo-2-isoindolyl)butyl ester] | 2.04
36 | Cc1ccc2nc(C(F)(F)F)c(C#N)c(N)c2c1 [4-amino-6-methyl-2-(trifluoromethyl)-3-quinolinecarbonitrile] | 7.58
37 | Nc1nonc1C(=O)NCCNCc1cc(Br)ccc1OCc1ccccc1F [4-amino-N-[2-[[5-bromo-2-(2-fluorobenzyl)oxy-benzyl]amino]ethyl]furazan-3-carboxamide;hydrochloride] | 8.07
38 | Nc1nonc1C(=O)NCCNCc1cc(Br)ccc1OCc1ccc(F)cc1 [4-amino-N-[2-[[5-bromo-2-(4-fluorobenzyl)oxy-benzyl]amino]ethyl]furazan-3-carboxamide;hydrochloride] | 6.9
39 | CCCCOc1ncnc2c1[nH]c1ccc(F)cc12 [4-butoxy-8-fluoranyl-5H-pyrimido[5,4-b]indole] | 2.73
40 | CCCCOc1ccc(S(=O)(=O)Nc2cccnc2)cc1 [4-butoxy-N-(3-pyridinyl)benzenesulfonamide] | 9.47

Same assay, conditions: inactive by the depositor's call

Row | SMILES | EC50 [µM]
41 | Cc1cc(C(=O)COC(=O)c2csc3c2CCCC3)c(C)n1C [4,5,6,7-tetrahydro-1-benzothiophene-3-carboxylic acid [2-oxo-2-(1,2,5-trimethyl-3-pyrrolyl)ethyl] ester] | 18.6
42 | O=C(OC1CCCCC1)c1ccc(NC(=O)c2ccco2)cc1 [4-(2-furoylamino)benzoic acid cyclohexyl ester] | 13.4
43 | Oc1nnc(Sc2ncnc3sccc23)n1CCc1ccccc1 [4-(2-phenylethyl)-3-(4-thieno[2,3-d]pyrimidinylthio)-1H-1,2,4-triazol-5-one] | 16.9
44 | Cc1ccc(Cl)cc1N1CCN(C(=O)COc2ccc(S(=O)(=O)NC(C)C)cc2)CC1 [4-[2-[4-(5-chloranyl-2-methyl-phenyl)piperazin-1-yl]-2-oxidanylidene-ethoxy]-N-propan-2-yl-benzenesulfonamide] | 12
45 | CCOC(=O)c1ccc(NC(=O)CCc2nc(-c3ccc(Cl)cc3)no2)cc1 [4-[3-[3-(4-chlorophenyl)-1,2,4-oxadiazol-5-yl]propanoylamino]benzoic acid ethyl ester] | 13.3
46 | Cn1nc(CC(=O)Nc2ccc(N3CCN(C(=O)OC(C)(C)C)CC3)cc2)c2ccccc2c1=O [4-[4-[[2-(3-methyl-4-oxo-1-phthalazinyl)-1-oxoethyl]amino]phenyl]-1-piperazinecarboxylic acid tert-butyl ester] | 13.3
47 | CCOC(=O)N1CCC(NC(=O)C2CCCN(Cc3nc(-c4cccc(Cl)c4)oc3C)C2)CC1 (stereo not given) [4-[[1-[[2-(3-chlorophenyl)-5-methyl-oxazol-4-yl]methyl]nipecotoyl]amino]piperidine-1-carboxylic acid ethyl ester] | 18.4
48 | COC(=O)c1ccc(C(c2c(N)n(CC(C)C)c(=O)[nH]c2=O)N2CCN(c3ccccc3)CC2)cc1 (stereo not given) [4-[[6-amino-1-(2-methylpropyl)-2,4-dioxo-5-pyrimidinyl]-(4-phenyl-1-piperazinyl)methyl]benzoic acid methyl ester] | 95
49 | Cc1ccc(S(=O)(=O)n2nc(C)c(Br)c2C)c(C)c1C [4-bromanyl-3,5-dimethyl-1-(2,3,4-trimethylphenyl)sulfonyl-pyrazole] | 88
50 | CCCCOc1ccc(S(=O)(=O)Nc2cc(OC)ccc2OC)cc1 [4-butoxy-N-(2,5-dimethoxyphenyl)benzenesulfonamide] | 12.9
